Legend:
[1] = test system: prostate stromal cells; conditions: in vitro; cited from earlier work
[2] = test system: adrenergic synapses of the sympathetic nervous system; assay: SPECT imaging of I-123-radiolabeled mIBG distribution in the heart, combined with x-ray CT; type: in vivo; conditions: human patient, I-123-mIBG, D-SPECT plus CT
Experimental: A human patient was administered I-123-radiolabeled mIBG, a radioactive tracer for adrenergic synapses of the sympathetic nervous system. An image based on mIBG distribution was obtained by SPECT using a D-SPECT® Cardiac Imaging System (Spectrum Dynamics, Israel). The anatomy of the heart was determined by performing x-ray CT imaging and segmenting the obtained x-ray CT images. The x-ray CT data was then combined with the SPECT data so as to construct an image showing mIBG distribution in the heart.

NC[C@H](O)c1ccc(O)c(O)c1 [Norepinephrine, norepinephrine]
mitogenic effect on prostate stromal cells [1]: direct mitogenic effect

N=C(N)NCc1cccc(I)c1 [mIBG, m-iodobenzylguanidine]
mIBG activity in left atrium (site of maximal activity level) ([2]; left atrium, FIGS. 6A-6D): maximal activity level in the left inferior pulmonary vein | mIBG activity in right ventricle (site of maximal activity level) ([2]; right ventricle, FIGS. 8A-8B): maximal activity level in the interventricular septum

From patent US20150366523A1, “NEURONAL IMAGING AND TREATMENT” (priority 2013, published 2015)
